According to the kinase profiling compilation of Christmann-Franck et al. (2016):

Columns and labels:
Experiment in all cases: KINOMEscan competition binding
Settings in all cases: compound 10.0 µM
RIPK2 (human) = RIPK2 (human) (UniProt O43353)
TIE1 (human) = TIE1 (human) (UniProt P35590)
BRSK1 (human) = BRSK1 (human) (UniProt Q8TDC3)
PIP4K2C (human) = PIP4K2C (human) (UniProt Q8TBX8)
DAPK3 (human) = DAPK3 (human) (UniProt O43293)
PLK2 (human) = PLK2 (human) (UniProt Q9NYY3)
TNK2 (human) = TNK2 (human) (UniProt Q07912)
DDR2 (human) = DDR2 (human) (UniProt Q16832)
MAP3K10 (human) = MAP3K10 (human) (UniProt Q02779)
PLK3 (human) = PLK3 (human) (UniProt Q9H4B4)
FLT1 (human) = FLT1 (human) (UniProt P17948)
CAMKK1 (human) = CAMKK1 (human) (UniProt Q8N5S9)
MAPK7 (human) = MAPK7 (human) (UniProt Q13164)
BMPR2 (human) = BMPR2 (human) (UniProt Q13873)
MAPK12 (human) = MAPK12 (human) (UniProt P53778)
PHKG2 (human) = PHKG2 (human) (UniProt P15735)
OXSR1 (human) = OXSR1 (human) (UniProt O95747)
[1] = tested on: BMX (human), P51813 [V600E]
MAP2K4 (human) = MAP2K4 (human) (UniProt P45985)
RIOK2 (human) = RIOK2 (human) (UniProt Q9BVS4)
RPS6KA4 KD1 (human) = RPS6KA4 KD1 (human) (UniProt O75676)
STK3 (human) = STK3 (human) (UniProt Q13188)
CAMKK2 (human) = CAMKK2 (human) (UniProt Q96RR4)
PIK3CD (human) = PIK3CD (human) (UniProt O00329)
MARK1 (human) = MARK1 (human) (UniProt Q9P0L2)
PAK6 (human) = PAK6 (human) (UniProt Q9NQU5)
IRAK3 (human) = IRAK3 (human) (UniProt Q9Y616)
FGFR4 (human) = FGFR4 (human) (UniProt P22455)
GRK4 (human) = GRK4 (human) (UniProt P32298)
YSK4 (human) = YSK4 (human) (UniProt Q56UN5)
CPK1 (P.falciparum) = tested on: CPK1 (P.falciparum)
NEK9 (human) = NEK9 (human) (UniProt Q8TD19)
MAP2K7 (human) = MAP2K7 (human) (UniProt O14733)
ACVR1B (human) = ACVR1B (human) (UniProt P36896)
[2] = tested on: PIK3CA (human), P42336 [E542K]
EPHA7 (human) = EPHA7 (human) (UniProt Q15375)
[3] = tested on: FGFR3 (human), P22607 [G697C]
MLTK (human) = MLTK (human) (UniProt Q9NYL2)
SIK1 (human) = SIK1 (human) (UniProt P57059)
PIK3C2B (human) = PIK3C2B (human) (UniProt O00750)

Sequence of PIK3CA (human), P42336 [E542K] (P42336 whole entry E542K, looked up): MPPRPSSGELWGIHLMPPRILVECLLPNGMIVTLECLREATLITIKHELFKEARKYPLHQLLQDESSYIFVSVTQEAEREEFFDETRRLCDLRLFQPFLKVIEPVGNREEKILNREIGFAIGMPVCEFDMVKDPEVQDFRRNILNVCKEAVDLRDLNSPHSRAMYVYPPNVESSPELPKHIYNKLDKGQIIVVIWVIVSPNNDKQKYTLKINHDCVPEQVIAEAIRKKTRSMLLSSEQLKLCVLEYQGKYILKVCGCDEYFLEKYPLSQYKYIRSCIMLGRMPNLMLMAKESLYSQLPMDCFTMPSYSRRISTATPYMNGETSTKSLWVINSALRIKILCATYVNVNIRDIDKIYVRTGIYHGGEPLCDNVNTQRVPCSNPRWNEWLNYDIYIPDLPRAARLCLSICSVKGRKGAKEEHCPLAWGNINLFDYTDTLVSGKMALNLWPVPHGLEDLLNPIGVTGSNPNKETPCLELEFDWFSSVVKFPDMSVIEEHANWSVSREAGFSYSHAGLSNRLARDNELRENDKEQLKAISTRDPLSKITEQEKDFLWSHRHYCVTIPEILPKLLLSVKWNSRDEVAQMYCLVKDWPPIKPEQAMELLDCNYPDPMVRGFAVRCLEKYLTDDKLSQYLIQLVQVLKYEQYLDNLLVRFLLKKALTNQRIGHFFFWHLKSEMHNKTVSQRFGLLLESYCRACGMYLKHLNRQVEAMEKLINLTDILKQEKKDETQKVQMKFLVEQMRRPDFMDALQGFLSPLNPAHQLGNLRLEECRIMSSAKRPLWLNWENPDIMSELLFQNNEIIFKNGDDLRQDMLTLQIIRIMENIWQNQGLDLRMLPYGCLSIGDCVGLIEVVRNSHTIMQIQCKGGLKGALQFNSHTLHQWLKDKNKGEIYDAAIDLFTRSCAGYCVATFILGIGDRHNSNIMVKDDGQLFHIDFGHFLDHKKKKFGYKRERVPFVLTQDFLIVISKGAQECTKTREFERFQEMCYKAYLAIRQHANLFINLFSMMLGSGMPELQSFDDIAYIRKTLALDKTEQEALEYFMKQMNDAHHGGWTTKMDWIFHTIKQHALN
Sequence of SIK1 (human) (P57059 whole entry, looked up): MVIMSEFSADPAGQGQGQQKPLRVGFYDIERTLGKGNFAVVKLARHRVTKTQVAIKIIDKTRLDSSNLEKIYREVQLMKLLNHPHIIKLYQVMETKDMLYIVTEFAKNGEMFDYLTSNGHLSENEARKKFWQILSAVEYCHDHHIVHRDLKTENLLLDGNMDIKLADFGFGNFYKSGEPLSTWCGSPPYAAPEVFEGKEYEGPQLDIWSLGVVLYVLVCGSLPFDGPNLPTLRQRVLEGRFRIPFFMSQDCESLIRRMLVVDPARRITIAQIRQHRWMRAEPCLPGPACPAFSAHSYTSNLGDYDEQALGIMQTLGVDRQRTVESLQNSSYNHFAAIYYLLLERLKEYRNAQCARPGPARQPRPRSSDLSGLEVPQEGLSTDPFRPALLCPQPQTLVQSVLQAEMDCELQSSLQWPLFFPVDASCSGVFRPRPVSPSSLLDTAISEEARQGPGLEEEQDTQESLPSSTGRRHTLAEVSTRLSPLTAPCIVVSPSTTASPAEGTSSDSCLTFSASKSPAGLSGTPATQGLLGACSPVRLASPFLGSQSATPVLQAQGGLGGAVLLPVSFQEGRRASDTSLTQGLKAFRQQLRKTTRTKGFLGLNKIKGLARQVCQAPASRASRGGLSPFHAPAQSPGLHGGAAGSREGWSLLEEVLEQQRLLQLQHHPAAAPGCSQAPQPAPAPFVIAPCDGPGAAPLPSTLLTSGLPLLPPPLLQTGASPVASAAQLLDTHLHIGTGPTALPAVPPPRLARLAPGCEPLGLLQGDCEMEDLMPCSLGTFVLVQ
Sequence of MLTK (human) (Q9NYL2 whole entry, looked up): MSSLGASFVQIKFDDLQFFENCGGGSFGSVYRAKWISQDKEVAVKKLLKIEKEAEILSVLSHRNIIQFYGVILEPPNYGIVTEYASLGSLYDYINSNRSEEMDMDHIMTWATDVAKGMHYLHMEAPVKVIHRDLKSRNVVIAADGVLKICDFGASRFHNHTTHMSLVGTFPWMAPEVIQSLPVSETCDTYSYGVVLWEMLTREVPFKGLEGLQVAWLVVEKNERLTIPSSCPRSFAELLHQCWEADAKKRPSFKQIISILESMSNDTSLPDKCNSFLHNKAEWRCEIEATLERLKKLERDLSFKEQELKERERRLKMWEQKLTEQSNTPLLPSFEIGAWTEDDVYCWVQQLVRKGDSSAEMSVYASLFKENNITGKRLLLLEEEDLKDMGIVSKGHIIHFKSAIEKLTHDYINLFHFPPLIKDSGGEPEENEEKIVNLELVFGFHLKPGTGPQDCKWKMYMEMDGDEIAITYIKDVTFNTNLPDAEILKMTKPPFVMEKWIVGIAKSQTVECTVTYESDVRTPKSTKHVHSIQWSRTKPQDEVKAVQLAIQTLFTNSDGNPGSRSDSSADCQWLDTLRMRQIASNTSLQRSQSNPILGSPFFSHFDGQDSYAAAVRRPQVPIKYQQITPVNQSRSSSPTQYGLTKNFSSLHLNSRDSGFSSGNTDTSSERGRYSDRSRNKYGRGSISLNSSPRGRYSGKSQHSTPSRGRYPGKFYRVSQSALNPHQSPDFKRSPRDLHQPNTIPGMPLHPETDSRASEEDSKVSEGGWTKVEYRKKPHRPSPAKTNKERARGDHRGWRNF
Sequence of RIOK2 (human) (Q9BVS4 whole entry, looked up): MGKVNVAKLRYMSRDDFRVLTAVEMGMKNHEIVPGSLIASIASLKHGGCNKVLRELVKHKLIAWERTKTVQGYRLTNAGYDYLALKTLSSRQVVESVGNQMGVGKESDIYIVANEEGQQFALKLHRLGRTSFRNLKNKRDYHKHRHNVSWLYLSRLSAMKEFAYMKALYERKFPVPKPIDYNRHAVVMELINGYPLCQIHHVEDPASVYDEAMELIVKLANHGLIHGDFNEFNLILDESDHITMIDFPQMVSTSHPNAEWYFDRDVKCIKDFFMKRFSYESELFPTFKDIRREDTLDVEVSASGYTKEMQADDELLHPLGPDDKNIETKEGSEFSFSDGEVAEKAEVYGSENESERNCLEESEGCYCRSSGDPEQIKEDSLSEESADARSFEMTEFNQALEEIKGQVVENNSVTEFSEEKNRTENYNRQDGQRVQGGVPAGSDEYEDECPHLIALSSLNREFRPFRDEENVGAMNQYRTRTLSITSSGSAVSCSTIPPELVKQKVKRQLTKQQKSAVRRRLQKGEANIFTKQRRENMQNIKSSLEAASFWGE
Sequence of MAP2K7 (human) (O14733 whole entry, looked up): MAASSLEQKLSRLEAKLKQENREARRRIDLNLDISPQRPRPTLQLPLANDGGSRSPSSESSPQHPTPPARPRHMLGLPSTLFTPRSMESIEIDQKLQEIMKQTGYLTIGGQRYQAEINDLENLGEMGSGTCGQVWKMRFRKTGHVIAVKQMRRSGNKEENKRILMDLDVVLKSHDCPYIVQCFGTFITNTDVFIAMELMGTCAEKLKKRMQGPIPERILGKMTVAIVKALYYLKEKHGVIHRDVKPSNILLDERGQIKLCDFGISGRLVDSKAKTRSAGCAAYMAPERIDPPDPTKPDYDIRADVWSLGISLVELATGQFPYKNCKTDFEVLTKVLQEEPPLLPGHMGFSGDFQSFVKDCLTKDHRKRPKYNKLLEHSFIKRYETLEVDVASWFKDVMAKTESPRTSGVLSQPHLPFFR
Sequence of ACVR1B (human) (P36896 whole entry, looked up): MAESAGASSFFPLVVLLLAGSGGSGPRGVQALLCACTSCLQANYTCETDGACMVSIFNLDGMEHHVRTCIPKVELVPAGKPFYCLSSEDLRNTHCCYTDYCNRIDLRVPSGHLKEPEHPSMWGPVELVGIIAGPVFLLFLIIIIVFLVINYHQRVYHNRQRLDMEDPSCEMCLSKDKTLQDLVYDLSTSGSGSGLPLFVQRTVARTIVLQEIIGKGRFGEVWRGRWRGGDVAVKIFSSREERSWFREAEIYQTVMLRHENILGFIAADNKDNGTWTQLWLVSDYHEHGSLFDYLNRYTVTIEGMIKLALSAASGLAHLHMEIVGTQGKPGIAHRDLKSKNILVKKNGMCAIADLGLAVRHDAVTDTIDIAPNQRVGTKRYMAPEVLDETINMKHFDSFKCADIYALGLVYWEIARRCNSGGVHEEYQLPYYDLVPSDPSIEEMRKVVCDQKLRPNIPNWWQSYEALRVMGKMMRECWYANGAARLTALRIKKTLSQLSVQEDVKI
Sequence of DDR2 (human) (Q16832 whole entry, looked up): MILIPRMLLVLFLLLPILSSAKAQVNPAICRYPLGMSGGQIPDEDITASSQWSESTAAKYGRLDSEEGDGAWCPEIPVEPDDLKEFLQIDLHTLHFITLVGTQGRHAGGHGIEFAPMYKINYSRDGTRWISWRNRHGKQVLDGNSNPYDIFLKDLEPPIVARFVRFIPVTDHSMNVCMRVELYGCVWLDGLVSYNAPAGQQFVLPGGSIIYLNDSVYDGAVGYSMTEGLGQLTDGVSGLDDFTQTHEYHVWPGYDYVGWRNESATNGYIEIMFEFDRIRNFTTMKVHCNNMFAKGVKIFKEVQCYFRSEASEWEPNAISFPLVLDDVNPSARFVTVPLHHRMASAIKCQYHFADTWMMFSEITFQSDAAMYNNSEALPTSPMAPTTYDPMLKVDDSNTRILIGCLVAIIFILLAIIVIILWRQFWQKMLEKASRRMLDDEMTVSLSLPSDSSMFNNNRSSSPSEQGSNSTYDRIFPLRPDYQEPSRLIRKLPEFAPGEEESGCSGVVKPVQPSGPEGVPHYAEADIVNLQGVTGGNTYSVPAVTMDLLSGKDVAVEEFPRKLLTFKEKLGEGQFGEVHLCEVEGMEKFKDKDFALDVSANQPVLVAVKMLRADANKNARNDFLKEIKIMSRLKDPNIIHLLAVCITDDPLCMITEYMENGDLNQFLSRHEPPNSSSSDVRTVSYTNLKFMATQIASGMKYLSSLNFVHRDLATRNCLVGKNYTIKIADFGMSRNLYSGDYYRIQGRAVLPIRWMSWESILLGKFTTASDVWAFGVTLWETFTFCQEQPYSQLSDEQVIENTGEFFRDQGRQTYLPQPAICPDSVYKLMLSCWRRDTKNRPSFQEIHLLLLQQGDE

Row | SMILES | kinase still bound, per cent of control (RIPK2 (human)) | kinase still bound, per cent of control (TIE1 (human)) | kinase still bound, per cent of control (BRSK1 (human)) | kinase still bound, per cent of control (PIP4K2C (human)) | kinase still bound, per cent of control (DAPK3 (human)) | kinase still bound, per cent of control (PLK2 (human)) | kinase still bound, per cent of control (TNK2 (human)) | kinase still bound, per cent of control (DDR2 (human)) | kinase still bound, per cent of control (MAP3K10 (human)) | kinase still bound, per cent of control (PLK3 (human)) | kinase still bound, per cent of control (FLT1 (human)) | kinase still bound, per cent of control (CAMKK1 (human)) | kinase still bound, per cent of control (MAPK7 (human)) | kinase still bound, per cent of control (BMPR2 (human)) | kinase still bound, per cent of control (MAPK12 (human)) | kinase still bound, per cent of control (PHKG2 (human)) | kinase still bound, per cent of control (OXSR1 (human)) | kinase still bound, per cent of control [1] | kinase still bound, per cent of control (MAP2K4 (human)) | kinase still bound, per cent of control (RIOK2 (human)) | further results
1 | COc1cc2c(Nc3ccc(NC(=O)c4ccccc4)cc3)ncnc2cc1OCCCN1CCOCC1 | 2.8% | 27% | 79% | 53% | 100% | 100% | 5.9% | 100% | 86% | 99% | 56% | 76% | 89% | 81% | 49% | 76% | 100% | 100% | 100% | 100% | kinase still bound, per cent of control (RPS6KA4 KD1 (human)): 100%; kinase still bound, per cent of control (STK3 (human)): 100%; kinase still bound, per cent of control (CAMKK2 (human)): 81%; kinase still bound, per cent of control (PIK3CD (human)): 100%; kinase still bound, per cent of control (MARK1 (human)): 100%; kinase still bound, per cent of control (PAK6 (human)): 95%; kinase still bound, per cent of control (IRAK3 (human)): 17%; kinase still bound, per cent of control (FGFR4 (human)): 100%; kinase still bound, per cent of control (GRK4 (human)): 100%; kinase still bound, per cent of control (YSK4 (human)): 23%; kinase still bound, per cent of control (CPK1 (P.falciparum)): 47%; kinase still bound, per cent of control (NEK9 (human)): 100%; kinase still bound, per cent of control (MAP2K7 (human)): 100%; kinase still bound, per cent of control (ACVR1B (human)): 100%; kinase still bound, per cent of control [2]: 100%; kinase still bound, per cent of control (EPHA7 (human)): 84%; kinase still bound, per cent of control [3]: 100%; kinase still bound, per cent of control (MLTK (human)): 34%; kinase still bound, per cent of control (SIK1 (human)): 82%; kinase still bound, per cent of control (PIK3C2B (human)): 100%
2 | CCN1CCN(Cc2ccc(NC(=O)c3ccc(C)c(/C=C/c4cnc5[nH]ccc5c4OC)c3)cc2C(F)(F)F)CC1 | 1.8% | 4.6% | 100% | 100% | 99% | 60% | 0.8% | 9% | 20% | 83% | 2.4% | 100% | 73% | 6.6% | 40% | 100% | 74% | 0.05% | 76% | 19% | kinase still bound, per cent of control (RPS6KA4 KD1 (human)): 50%; kinase still bound, per cent of control (STK3 (human)): 5.2%; kinase still bound, per cent of control (CAMKK2 (human)): 100%; kinase still bound, per cent of control (PIK3CD (human)): 78%; kinase still bound, per cent of control (MARK1 (human)): 94%; kinase still bound, per cent of control (PAK6 (human)): 54%; kinase still bound, per cent of control (IRAK3 (human)): 65%; kinase still bound, per cent of control (FGFR4 (human)): 0.45%; kinase still bound, per cent of control (GRK4 (human)): 8.2%; kinase still bound, per cent of control (YSK4 (human)): 0.2%; kinase still bound, per cent of control (CPK1 (P.falciparum)): 0.2%; kinase still bound, per cent of control (NEK9 (human)): 8.4%; kinase still bound, per cent of control (MAP2K7 (human)): 1.4%; kinase still bound, per cent of control (ACVR1B (human)): 98%; kinase still bound, per cent of control [2]: 100%; kinase still bound, per cent of control (EPHA7 (human)): 16%; kinase still bound, per cent of control [3]: 2.5%; kinase still bound, per cent of control (MLTK (human)): 0.8%; kinase still bound, per cent of control (SIK1 (human)): 0.9%; kinase still bound, per cent of control (PIK3C2B (human)): 100%
